From PMC11725581, “Developing novel Lin28 inhibitors by computer aided drug design” (Cell Death Discovery, 2025) come the findings set out here.

For this assay, the target named is T1, Lin28b ZKD (Homo sapiens, UniProt Q6ZN17).
T1 sequence (Q6ZN17 127-166 limits assumed): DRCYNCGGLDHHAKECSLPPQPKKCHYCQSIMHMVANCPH
Kind of assay: 1H-15N HSQC NMR of Lin28b-ZKD with ligand. Type of assay: binding. The note with it: ligand added in 20:1 molar ratio. An excerpt: Given that Ln268 is derived from the parent compound Ln15, we wanted to assess whether the improved properties of Ln268 were linked to a potential difference in its interaction with Lin28 ZKD. To this end, we collected ^1H-^15N HSQC spectra of Lin28b-ZKD, Lin28b-ZKD + Ln15, and Lin28b-ZKD + Ln268. RNA binding proteins (RBPs) commonly have binding pockets that are intrinsically disordered, as evidenced by the narrow chemical shift dispersion observed in the HQSC of Lin28b-ZKD alone (Fig. 3D). Addition of either Ln15 or Ln268 led to changes in the chemical shifts of ca. 20 residues, consistent with the change in conformation of the Lin28b-ZKD segment which encompasses residues 137–160 (three of which are prolines) upon RNA binding (Fig. 3E). Although many of the peak shifts are the same for the Ln15 and Ln268 containing samples, there are around 7 resonances where the peaks disappear in the case of Ln268.
NMR spectra were recorded at 5 °C on a Bruker Avance III 850 MHz spectrometer, equipped with a TCI cryoprobe. ^1H-^15N HSQC experiments were recorded on ^13C/^15N-labeled Lin28b ZKD (230 μM), in 20 mM d-Tris-HCl (pH 7.5), 100 mM NaCl, 1 mM d-DTT, 0.02% NaN3, 0.25 mM ZnCl2 + 1 mM IDA, and 10% D2O, to which unlabeled Ln15 and Ln268 was added, respectively. The time domain matrix was 4k by 512. Four scans were acquired per t1 increment. Spectra were processed and plotted using Topspin to a final size of 8k by 1k. For the overlays, the levels were set to the same base level in all cases, with a multiplication factor of 1.1.

On to `O=c1[nH]c(Nc2ccc(F)cc2O)cs1` [Ln268], for which the “residues of Lin28b-ZKD with changed chemical shifts (1H-15N HSQC)” value is recorded as “ca. 20 residues” and the “resonances of Lin28b-ZKD whose peaks disappear (1H-15N HSQC)” value is “around 7 resonances”.
